Here are results for 18 molecules from US9493487B2, “3-(1H-imidazo[4,5-C]pyridin-2-YL)-1H-pyrazolo[3,4-B]pyridine and therapeutic uses thereof” (Samumed, LLC, priority 2014, dated 2016).

Common to all, as to assay type: cell-based
Experiment [1] has as its system Wnt activity (Sp5-Luc reporter, SW480 colon carcinoma cells). Briefly: Sp5-Luc Wnt reporter gene assay in SW480 colon carcinoma cells. The settings on record: Homo sapiens; SW480 cells stably expressing Sp5-Luc reporter; 42 h incubation; BrightGlo luminescence normalized to DMSO. Summed up:
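IC50 values come from variable-slope four-parameter fits of luciferase signal normalized to DMSO wells. Stable Sp5-Luc reporter SW480 colon carcinoma cells were exposed to compounds in a 3-fold dilution series (source plates from 10 mM stock) for forty-two hours at 37 °C.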
A general note: In a reporter assay the amount or activity of a reporter protein is the signal.

For experiment [2], the system named is primary human mesenchymal stem cells (hMSCs). Briefly: Chondrogenesis induction screen in primary human mesenchymal stem cells (nodule count, Rhodamine B/Nile Red). As to conditions: 144 h, 6 days, concentration required to induce chondrogenesis equivalent to TGF-β3 (10 ng/mL), read-out: Conc (nM) of 100% TGF-β3 activity. How it is done: The above synthesized compounds were screened using primary human mesenchymal stem cells (hMSCs) to determine their ability to induce chondrogenesis (process by which cartilage is developed).
Primary human mesenchymal stem cells (hMSCs) were purchased from Lonza (Walkersville, Md.) and expanded in Mesenchymal Stem Cell Growth Media (Lonza). Cells between passage 3 and 6 were used for the experiments.
Each compound was dissolved in DMSO as a 10 mM stock and used to prepare compound source plates. Serial dilution (1:3, 6-point dose-response curves from 2700 nM to 10 nM) and compound transfer was performed using the ECHO 550 (Labcyte, Sunnyvale, Calif.) into 96-well clear bottom assay plates (Greiner Bio-One) with appropriate DMSO backfill for a final DMSO concentration of 0.03%. hMSCs were plated at 20,000 cells/well in 250 μL/well Incomplete Chondrogenic Induction Medium (Lonza; DMEM, dexamethasone, ascorbate, insulin-transferrin-selenium [ITS supplement], gentamycin-amphotericin [GA-1000], sodium pyruvate, proline and L-glutamine). TGF-β3 (10 ng/mL) was used as a positive control for differentiation while negative control wells were treated with 75 nL DMSO for normalization and calculating EC50 values. Cells were incubated at 37° C. and 5% CO2 for 6 days. To image chondrogenic nodules, the cells were fixed using 4% formaldehyde (Electron Microscopy Sciences), and stained with 2 μg/mL Rhodamine B (Sigma-Aldrich) and 20 μM Nile Red (Sigma-Aldrich) [Johnson K., et. al, A Stem Cell-Based Approach to Cartilage Repair, Science, (2012), 336(6082), 717-721]. The nodules imaged (4 images per well at 4× magnification) by excitation at 531 nm and emission at 625 nm and quantified using the CellInsight CX5 (Thermo Scientific). Number of nodules in each well was normalized to the average of 3 DMSO treated wells on the same plate using Excel (Microsoft Inc.). The normalized averages (fold change over DMSO) of 3 replicate wells for each compound concentration were calculated. Due to solubility limitations of some of the compounds, curve fitting was incomplete leading to inaccurate EC50 determinations.
Using TGF-β3 as a positive control, the concentration of test compounds required to induce equivalent levels of chondrogenesis is reported. In addition, the maximum activity of each compound and the respective dose that each compound reached maximum chondrogenesis activity is reported.

Experiment [3] has as its system primary human fibroblasts derived from IPF patients (LL29 cells). As to the kind of experiment: Inhibition of TGF-β1-induced fibrosis (αSMA staining) in primary human fibroblasts from IPF patients. The settings on record: Fibroblast, 96 h, TGF-β1 20 ng/mL, 4 days, 11-point dose-response 10 μM to 1.87 nM. Summed up:
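LL29 cells in F12 with 1% FBS were exposed to compound (11-point, 10 μM–1.87 nM, 0.1% DMSO) plus TGF-β1 20 ng/mL for 4 days at 37° C. Imaged αSMA-positive fraction of live (SYTOX-negative) cells, normalized to TGF-β1/DMSO wells; EC50 by non-linear regression of triplicates.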

In the case of `CCC(=O)Nc1cncc(-c2cnc3[nH]nc(-c4nc5c(-c6cccc(F)c6)nccc5[nH]4)c3c2)c1` [Compound 1, N-(5-(3-(4-(3-Fluorophenyl)-1H-imidazo[4,5-c]pyridin-2-yl)-1H-pyrazolo[3,4-b]pyridin-5-yl)pyridin-3-yl)propionamide], 5.8 nM corresponded to half-maximal inhibition in experiment [1] (IC50). Also, the EC (100% TGF-beta3 activity) in experiment [2] is 117 nM. Moreover, the concentration for a half-maximal effect (EC50) – broadly, the concentration giving half of the maximal effect – in experiment [3] was found to be 62 nM.

In the case of `O=C(Nc1cncc(-c2cnc3[nH]nc(-c4nc5c(-c6ccc(F)cc6)nccc5[nH]4)c3c2)c1)C1CCC1` [Compound 46, N-(5-(3-(4-(4-Fluorophenyl)-1H-imidazo[4,5-c]pyridin-2-yl)-1H-pyrazolo[3,4-b]pyridin-5-yl)pyridin-3-yl)cyclobutanecarboxamide], the midpoint of inhibition in experiment [1], the IC50, lay at 5 nM. The EC (100% TGF-beta3 activity) in experiment [2] was found to be 80.6 nM. The molecule further showed an EC50 in experiment [3] of 253 nM.

Take `Nc1cncc(-c2cnc3[nH]nc(-c4nc5c(-c6ccccc6F)nccc5[nH]4)c3c2)c1` [Compound 55, 5-(3-(4-(2-Fluorophenyl)-1H-imidazo[4,5-c]pyridin-2-yl)-1H-pyrazolo[3,4-b]pyridin-5-yl)pyridin-3-amine]: 5.9 nM corresponded to half-maximal inhibition in experiment [1] (IC50). For the same molecule, the EC (100% TGF-beta3 activity) in experiment [2] turned out to be 32.2 nM. The same molecule had an EC50 in experiment [3] of 283 nM.

Consider `Cc1cn(-c2nccc3[nH]c(-c4n[nH]c5ncc(-c6cncc(NC(=O)CC(C)C)c6)cc45)nc23)cn1` [Compound 184, 3-Methyl-N-(5-(3-(4-(4-methyl-1H-imidazol-1-yl)-1H-imidazo[4,5-c]pyridin-2-yl)-1H-pyrazolo[3,4-b]pyridin-5-yl)pyridin-3-yl)butanamide], for which the IC50 (in general, the midpoint of a concentration-inhibition curve) in experiment [1] amounted to 4.8 nM. The EC (100% TGF-beta3 activity) in experiment [2] amounted to 5.4 nM.

With `CCCC(=O)Nc1cncc(-c2cnc3[nH]nc(-c4nc5c(-c6ccsc6)nccc5[nH]4)c3c2)c1` [Compound 251, N-(5-(3-(4-(Thiophen-3-yl)-1H-imidazo[4,5-c]pyridin-2-yl)-1H-pyrazolo[3,4-b]pyridin-5-yl)pyridin-3-yl)butyramide], the IC50 in experiment [1] worked out at 9.9 nM. In addition, the EC (100% TGF-beta3 activity) in experiment [2] is 52.8 nM. In experiment [3], the EC50 was 73 nM.

Turning to `CC(C)Nc1cncc(-c2cnc3[nH]nc(-c4nc5c(-c6ccoc6)nccc5[nH]4)c3c2)c1` [Compound 272, 5-(3-(4-(Furan-3-yl)-1H-imidazo[4,5-c]pyridin-2-yl)-1H-pyrazolo[3,4-b]pyridin-5-yl)-N-isopropylpyridin-3-amine], in experiment [1], the IC50 was 13 nM. The EC (100% TGF-beta3 activity) in experiment [2] amounted to 72 nM. Also, in experiment [3], it took 9 nM to reach a half-maximal effect (EC50).

`O=C(Nc1cncc(-c2cnc3[nH]nc(-c4nc5c(-c6cccs6)nccc5[nH]4)c3c2)c1)C1CC1` [Compound 305, N-(5-(3-(4-(Thiophen-2-yl)-1H-imidazo[4,5-c]pyridin-2-yl)-1H-pyrazolo[3,4-b]pyridin-5-yl)pyridin-3-yl)cyclopropanecarboxamide] had an IC50 in experiment [1] of 9 nM. Further, the EC (100% TGF-beta3 activity) in experiment [2] turned out to be 54.9 nM.

Turning to `CN(C)CCNc1cc(F)cc(-c2nccc3[nH]c(-c4n[nH]c5ncc(-c6cncc(CNCC7CCCC7)c6)cc45)nc23)c1` [Compound 440, N^1-(3-(2-(5-(5-(((Cyclopentylmethyl)amino)methyl)pyridin-3-yl)-1H-pyrazolo[3,4-b]pyridin-3-yl)-1H-imidazo[4,5-c]pyridin-4-yl)-5-fluorophenyl)-N^2,N^2-dimethylethane-1,2-diamine], 752 nM corresponded to half-maximal inhibition in experiment [1] (IC50). Further, in experiment [3], the concentration giving a half-maximal response (EC50) was 858 nM.

With `Fc1cccc(-c2nccc3[nH]c(-c4n[nH]c5ncc(C6CCNCC6)cc45)nc23)c1` [Compound 885, 3-(4-(3-Fluorophenyl)-1H-imidazo[4,5-c]pyridin-2-yl)-5-(piperidin-4-yl)-1H-pyrazolo[3,4-b]pyridine], in experiment [1], the IC50 stood at 3860 nM. In experiment [3], the response was half-maximal at 9 nM (EC50).

With `Fc1cccc(-c2nccc3[nH]c(-c4n[nH]c5ncc(-c6cn[nH]c6)cc45)nc23)c1` [Compound 887, 3-(4-(3-Fluorophenyl)-1H-imidazo[4,5-c]pyridin-2-yl)-5-(1H-pyrazol-4-yl)-1H-pyrazolo[3,4-b]pyridine], inhibition in experiment [1] was half-maximal at 6 nM (IC50). The molecule also displayed an EC50 in experiment [3] of 10 nM.

The molecule `NC1CN(c2cncc(-c3cnc4[nH]nc(-c5nc6c(-c7cccc(F)c7)nccc6[nH]5)c4c3)n2)C1` [Compound 890, 1-(6-(3-(4-(3-Fluorophenyl)-1H-imidazo[4,5-c]pyridin-2-yl)-1H-pyrazolo[3,4-b]pyridin-5-yl)pyrazin-2-yl)azetidin-3-amine] returned an IC50 in experiment [1] of 365 nM. Further, a half-maximal effect in experiment [3] (EC50) was put at 205 nM.

Consider `Fc1cccc(-c2nccc3[nH]c(-c4n[nH]c5ncc(-c6cncc(OC7CCNCC7)c6)cc45)nc23)c1` [Compound 892, 3-(4-(3-Fluorophenyl)-1H-imidazo[4,5-c]pyridin-2-yl)-5-(5-(piperidin-4-yloxy)pyridin-3-yl)-1H-pyrazolo[3,4-b]pyridine], for which, in experiment [1], the midpoint of inhibition, the IC50, lay at 315 nM. For the same molecule, a half-maximal response in experiment [3] (EC50) required 9 nM.

`O=C(CC1CCNCC1)Nc1cncc(-c2cnc3[nH]nc(-c4nc5c(-c6cccc(F)c6)nccc5[nH]4)c3c2)c1` [Compound 893, N-(5-(3-(4-(3-Fluorophenyl)-1H-imidazo[4,5-c]pyridin-2-yl)-1H-pyrazolo[3,4-b]pyridin-5-yl)pyridin-3-yl)-2-(piperidin-4-yl)acetamide]: inhibition in experiment [1] was half-maximal at 868 nM (IC50). In experiment [3], this molecule yielded an EC50 of 308 nM.

In the case of `CN(C)CCOc1cncc(-c2cnc3[nH]nc(-c4nc5c(-c6cccc(F)c6)nccc5[nH]4)c3c2)c1` [Compound 895, 2-((5-(3-(4-(3-Fluorophenyl)-1H-imidazo[4,5-c]pyridin-2-yl)-1H-pyrazolo[3,4-b]pyridin-5-yl)pyridin-3-yl)oxy)-N,N-dimethylethan-1-amine], in experiment [1], the IC50 was 343 nM. In addition, the EC50 in experiment [3] was not below 9990 nM.

With `COc1cncc(-c2cnc3[nH]nc(-c4nc5c(-c6cccc(F)c6)nccc5[nH]4)c3c2)c1` [Compound 896, 3-(4-(3-Fluorophenyl)-1H-imidazo[4,5-c]pyridin-2-yl)-5-(5-methoxypyridin-3-yl)-1H-pyrazolo[3,4-b]pyridine], in experiment [1], 37 nM corresponded to half-maximal inhibition (IC50). Besides, the midpoint of the response in experiment [3], the EC50, lay at 108 nM.

Take `Fc1cccc(-c2nccc3[nH]c(-c4n[nH]c5ncc(-c6ccncc6)cc45)nc23)c1` [Compound 900, 3-(4-(3-Fluorophenyl)-1H-imidazo[4,5-c]pyridin-2-yl)-5-(pyridin-4-yl)-1H-pyrazolo[3,4-b]pyridine]: in experiment [1], the IC50 was more than 10000 nM. The molecule also had an EC50 in experiment [3] of 9 nM.

Turning to `Fc1cccc(-c2nccc3[nH]c(-c4n[nH]c5ncc(-c6cnccn6)cc45)nc23)c1` [Compound 902, 3-(4-(3-Fluorophenyl)-1H-imidazo[4,5-c]pyridin-2-yl)-5-(pyrazin-2-yl)-1H-pyrazolo[3,4-b]pyridine], the IC50 in experiment [1] is 705 nM. For the same molecule, a half-maximal response in experiment [3] (EC50) required 9 nM.

The molecule `CN(C)CC(=O)Nc1cncc(-c2cnc3[nH]nc(-c4nc5c(-c6cccc(F)c6)nccc5[nH]4)c3c2)c1` [Compound 1367, 2-(Dimethylamino)-N-(5-(3-(4-(3-fluorophenyl)-1H-imidazo[4,5-c]pyridin-2-yl)-1H-pyrazolo[3,4-b]pyridin-5-yl)pyridin-3-yl)acetamide] displayed a half-inhibitory concentration (IC50) in experiment [1] of 183 nM. Besides, the EC50 in experiment [3] turned out to be 186 nM.
